Data reported in patent US20050143433A1, “Substituted heterocycles useful for treating HCV infection” (priority 2003, published 2005).

System: HCV replicon (5-2 Luc replicon-comprising cells)
Assay: HCV replicon luciferase emission assay
Format: cell-based
Details: Hepatitis C virus; 5-2 Luc replicon cells, 24 hours with compound, 50% reduction in luciferase emission
Text: The inhibitory activity of certain exemplary compounds of the invention was confirmed using an HCV replicon assay. The HCV replicon can include such features as the HCV 5′ untranslated region including the HCV IRES, the HCV 3′ untranslated region, selected HCV genes encoding HCV polypeptides, selectable markers, and a reporter gene such as luciferase, GFP, etc. In the assay, actively dividing 5-2 Luc replicon-comprising cells (obtained from Rolf Bartenschlager; see Lohmann et al., 1999, Science 285:110-113) were seeded at a density of between about 5,000 and 7,500 cells/well onto 96 well plates (about 90 μl of cells per well) and incubated at 37° C. and 5% CO2 for 24 hours. Then, the test compound (in a volume of about 10 μl) was added to the wells at various concentrations and the cells were incubated for an additional 24 hours before luciferase assay. The media was aspirated from each well and Bright-Glo (Promega, Madison, Wis.) luciferase assay reagents were added to each well according to the manufacturer's instructions. Briefly, the Bright-Glo reagent was diluted 1:1 with PBS and 100 μl of diluted reagent was added to each well. After 5 min of incubation at room temperature, luciferin emission was quantified with a luminometer. In this assay, the amount of test compound that yielded a 50% reduction in luciferase emission (IC50) was determined.

Work on `O=C1c2ccccc2-c2onc3ccc(N4CC4)c1c23` [Compound 2] yielded an IC50 of 800 nM.
